Tests used:
Format in all cases: binding
Settings in all cases: Compound Concentration 10 µM
panel of 442 kinases [1] = target: T1, panel of 442 kinases (Homo sapiens, UniProt Q9P286)
T1 construct: purchased KINOMEscan
Description: (§1) We assessed the selectivity of members of this scaffold using the KINOMEscan methodology across a near comprehensive panel of 442 kinases [[18,27]].

panel of 442 kinases [2] = target: T2, panel of 442 kinases (Homo sapiens, UniProt Q9Y2H9)
T2 construct: purchased KINOMEscan
T2 sequence (Q9Y2H9 whole entry): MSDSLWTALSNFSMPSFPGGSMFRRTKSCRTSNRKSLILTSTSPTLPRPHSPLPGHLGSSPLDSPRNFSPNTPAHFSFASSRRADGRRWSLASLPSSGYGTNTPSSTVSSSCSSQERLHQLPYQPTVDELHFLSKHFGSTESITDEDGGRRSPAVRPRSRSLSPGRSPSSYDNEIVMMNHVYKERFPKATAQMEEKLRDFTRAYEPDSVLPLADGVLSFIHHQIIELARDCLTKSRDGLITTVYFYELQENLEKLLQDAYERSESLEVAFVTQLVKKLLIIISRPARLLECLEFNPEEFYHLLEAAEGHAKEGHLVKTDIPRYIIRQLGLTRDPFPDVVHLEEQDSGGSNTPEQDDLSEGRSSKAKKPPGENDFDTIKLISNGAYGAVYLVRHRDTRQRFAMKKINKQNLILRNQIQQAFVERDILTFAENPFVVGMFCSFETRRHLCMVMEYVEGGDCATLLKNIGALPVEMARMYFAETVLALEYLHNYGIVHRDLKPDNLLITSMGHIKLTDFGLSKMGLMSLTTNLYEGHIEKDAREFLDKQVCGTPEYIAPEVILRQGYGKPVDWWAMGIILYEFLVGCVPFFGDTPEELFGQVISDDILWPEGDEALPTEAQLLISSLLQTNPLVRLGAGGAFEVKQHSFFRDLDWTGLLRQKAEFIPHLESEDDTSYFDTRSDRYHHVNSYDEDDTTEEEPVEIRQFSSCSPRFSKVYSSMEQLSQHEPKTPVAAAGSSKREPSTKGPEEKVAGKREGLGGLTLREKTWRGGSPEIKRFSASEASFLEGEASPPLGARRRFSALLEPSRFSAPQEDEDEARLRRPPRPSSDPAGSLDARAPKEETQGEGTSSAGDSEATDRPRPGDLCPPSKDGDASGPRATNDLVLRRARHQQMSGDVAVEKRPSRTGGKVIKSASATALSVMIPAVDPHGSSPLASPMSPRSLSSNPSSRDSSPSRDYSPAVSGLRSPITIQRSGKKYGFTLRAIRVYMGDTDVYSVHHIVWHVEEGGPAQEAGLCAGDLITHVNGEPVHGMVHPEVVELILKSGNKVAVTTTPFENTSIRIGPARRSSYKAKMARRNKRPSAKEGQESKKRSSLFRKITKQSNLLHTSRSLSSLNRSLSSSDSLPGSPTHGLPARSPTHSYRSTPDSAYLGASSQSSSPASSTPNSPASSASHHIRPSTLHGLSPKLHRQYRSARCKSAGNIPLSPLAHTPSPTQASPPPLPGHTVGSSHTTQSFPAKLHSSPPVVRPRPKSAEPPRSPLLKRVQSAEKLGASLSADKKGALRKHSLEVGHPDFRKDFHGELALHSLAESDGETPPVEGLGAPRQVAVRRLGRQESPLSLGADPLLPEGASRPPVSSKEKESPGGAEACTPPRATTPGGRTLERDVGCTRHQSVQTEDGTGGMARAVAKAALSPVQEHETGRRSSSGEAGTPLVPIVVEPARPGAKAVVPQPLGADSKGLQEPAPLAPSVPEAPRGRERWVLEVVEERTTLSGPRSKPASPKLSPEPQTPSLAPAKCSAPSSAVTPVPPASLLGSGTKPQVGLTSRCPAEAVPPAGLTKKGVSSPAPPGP
Description: as §1

panel of 442 kinases [3] = target: T3, panel of 442 kinases (Homo sapiens, UniProt P29322)
T3 construct: purchased KINOMEscan
T3 sequence (P29322 28-1005): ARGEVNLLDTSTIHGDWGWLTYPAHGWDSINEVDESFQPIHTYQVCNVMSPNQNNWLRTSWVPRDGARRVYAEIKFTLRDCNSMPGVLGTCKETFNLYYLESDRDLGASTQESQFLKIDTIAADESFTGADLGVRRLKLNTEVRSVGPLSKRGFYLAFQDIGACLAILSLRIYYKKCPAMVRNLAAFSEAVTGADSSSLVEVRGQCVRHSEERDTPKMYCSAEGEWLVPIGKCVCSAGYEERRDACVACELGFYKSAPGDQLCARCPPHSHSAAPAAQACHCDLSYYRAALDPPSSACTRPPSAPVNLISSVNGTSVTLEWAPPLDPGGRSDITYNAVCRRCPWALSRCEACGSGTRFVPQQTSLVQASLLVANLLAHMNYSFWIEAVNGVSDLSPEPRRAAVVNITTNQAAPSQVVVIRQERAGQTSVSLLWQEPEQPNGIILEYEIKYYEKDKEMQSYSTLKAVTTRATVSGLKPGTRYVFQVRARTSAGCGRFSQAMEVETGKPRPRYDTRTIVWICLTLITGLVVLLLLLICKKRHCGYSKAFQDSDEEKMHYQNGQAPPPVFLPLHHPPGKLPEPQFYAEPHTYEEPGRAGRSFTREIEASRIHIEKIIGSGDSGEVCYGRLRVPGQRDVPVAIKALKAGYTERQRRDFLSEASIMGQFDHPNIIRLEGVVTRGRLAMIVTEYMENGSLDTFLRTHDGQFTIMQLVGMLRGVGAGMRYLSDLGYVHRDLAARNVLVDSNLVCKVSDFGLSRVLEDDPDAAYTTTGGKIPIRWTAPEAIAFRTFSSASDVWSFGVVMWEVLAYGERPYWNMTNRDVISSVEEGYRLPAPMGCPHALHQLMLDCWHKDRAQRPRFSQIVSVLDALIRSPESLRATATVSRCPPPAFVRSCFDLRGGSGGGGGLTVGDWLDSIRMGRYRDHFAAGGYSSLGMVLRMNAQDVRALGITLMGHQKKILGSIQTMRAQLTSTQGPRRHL
Description: as §1

T1 sequence (Q9P286 whole entry): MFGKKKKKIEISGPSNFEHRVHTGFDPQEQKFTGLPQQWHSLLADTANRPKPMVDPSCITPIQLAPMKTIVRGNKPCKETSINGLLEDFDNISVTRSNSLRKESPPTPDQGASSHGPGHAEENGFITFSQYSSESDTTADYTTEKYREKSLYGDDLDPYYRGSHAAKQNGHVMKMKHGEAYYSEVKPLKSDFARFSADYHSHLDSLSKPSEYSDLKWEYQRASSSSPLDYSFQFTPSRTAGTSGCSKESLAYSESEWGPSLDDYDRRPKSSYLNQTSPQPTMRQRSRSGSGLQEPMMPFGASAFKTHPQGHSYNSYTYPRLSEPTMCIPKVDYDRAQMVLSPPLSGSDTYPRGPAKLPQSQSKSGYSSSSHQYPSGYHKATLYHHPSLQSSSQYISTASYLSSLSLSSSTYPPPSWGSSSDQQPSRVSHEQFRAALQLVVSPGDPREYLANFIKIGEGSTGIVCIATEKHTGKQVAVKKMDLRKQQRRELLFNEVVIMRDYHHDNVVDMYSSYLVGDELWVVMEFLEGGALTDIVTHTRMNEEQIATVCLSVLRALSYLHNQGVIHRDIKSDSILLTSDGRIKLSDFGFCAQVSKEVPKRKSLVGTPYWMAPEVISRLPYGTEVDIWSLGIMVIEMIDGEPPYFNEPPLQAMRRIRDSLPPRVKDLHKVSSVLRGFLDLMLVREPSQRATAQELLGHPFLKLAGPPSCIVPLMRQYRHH

Structure (SMILES): COc1cc(C(=O)N2CCC(N3CCN(C)CC3)CC2)ccc1Nc1ncc2c(n1)N(C1CCCC1)c1ccccc1C(=O)N2C [Compound 25, 11-cyclopentyl-2-((2-methoxy-4-(4-(4-methylpiperazin-1-yl)piperidine-1-carbonyl)phenyl)amino)-5-methyl-5H-benzo[e]pyrimido[5,4-b][1,4]diazepin-6(11H)-one]
- KINOMEscan: PAK7 (panel of 442 kinases [1]): 100
- KINOMEscan: MAST1 (panel of 442 kinases [2]): 78
- KINOMEscan: EPHA8 (panel of 442 kinases [3]): 97

Structure (SMILES): CCOc1cc(C(=O)N2CCC(N3CCN(C)CC3)CC2)ccc1Nc1ncc2c(n1)N(C1CCCC1)c1ccccc1C(=O)N2C [Compound 26]
- KINOMEscan: PAK7 (panel of 442 kinases [1]): 100
- KINOMEscan: MAST1 (panel of 442 kinases [2]): 100
- KINOMEscan: EPHA8 (panel of 442 kinases [3]): 100

Structure (SMILES): COc1cc(C(=O)N2CCC(N3CCN(C)CC3)CC2)ccc1Nc1ncc2c(n1)N1CCc3cccc(c31)C(=O)N2C [Compound 24]
- KINOMEscan: MAST1 (panel of 442 kinases [2]): 73
- KINOMEscan: EPHA8 (panel of 442 kinases [3]): 72

Structure (SMILES): COc1cc(C(=O)N2CCC(N3CCN(C)CC3)CC2)ccc1Nc1ncc2c(n1)N(C)c1ccccc1C(=O)N2C [15 (LRRK2-IN-1)]
- KINOMEscan: PAK7 (panel of 442 kinases [1]): 96
- KINOMEscan: MAST1 (panel of 442 kinases [2]): 100
- KINOMEscan: EPHA8 (panel of 442 kinases [3]): 80

Source: article PMC3914206
